Drawing on patent US12528816B2, “Substituted imidazo [1,2-b] pyridazines and [1, 2, 4] triazolo [ 4,3-b] pyridazines as camkii inhibitors” (Cardurion Pharmaceuticals, INC., priority 2020, dated 2026), this text covers IC50 for 63 molecules.

The target of this experiment is T1, human CaMKIIδ (Homo sapiens, UniProt Q13557).
T1 construct: Full-length, glutathione-S-transferase(GST)-tagged, human CaMKIIδ was purchased from Carna Biosciences; purchased Carna Biosciences (CaMKIIδ); Wako Pure Chemical Industries (calmodulin) 02-111
In words: Evaluation of in vitro CaMKII inhibitory activity (binding assay, TR-FRET). The settings on record: human CaMKIIδ, TR-FRET binding assay; class symbols A/B/C; read-out: Act (CaMKII inhibitory activity, binding assay). The essentials: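 Inhibitors, in eight concentrations of 4-fold dilution, were incubated 1 h at room temperature with a protein–fluorescent probe premix preformed 30 min on ice, containing calmodulin and terbium anti-GST antibody. Displacement read by TR-FRET in duplicate; IC50 by logistic fitting.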
As for `C[C@@H](Cn1cnnn1)Oc1cccc(-c2ccn3ncc(-c4cccc(C(=O)NCCN5CCCC5=O)c4)c3n2)c1` [compound 113], the IC50 was less than 10 nM. The value for `C[C@@H](Cc1nnn[nH]1)Oc1cccc(-c2ccn3ncc(-c4cccs4)c3n2)c1` [compound 114] was 10 to 100 nM. Turning to `CNC(=O)c1cccc(-n2cnc3ccc(-c4ccc(F)c(O[C@@H](C)Cn5cnnn5)c4)nc32)c1` [compound 115], the IC50 is less than 10 nM. Regarding `CNC(=O)c1ccnc(-n2cnc3ccc(-c4ccc(F)c(O[C@@H](C)Cn5cnnn5)c4)nc32)c1` [compound 116], the IC50 was less than 10 nM. On to `CCN(CC)CCNC(=O)c1ccnc(-n2cnc3ccc(-c4ccc(F)c(O[C@@H](C)Cn5cnnn5)c4)nc32)c1` [compound 117], for which the IC50 was less than 10 nM. As for `C[C@@H](Cn1cnnn1)Oc1cc(-c2ccc3ncn(-c4cnn(C(=O)OC(C)(C)C)c4)c3n2)ccc1F` [compound 118], the IC50 was less than 10 nM.

On to `C[C@@H](Cn1cnnn1)Oc1cc(-c2ccc3ncn(-c4cn[nH]c4)c3n2)ccc1F` [compound 119], for which the IC50 was less than 10 nM. Turning to `C[C@@H](Cn1cnnn1)Oc1cc(-c2ccc3ncn(-c4cnn(C)c4)c3n2)ccc1F` [compound 120], the IC50 fell in the range of 10 to 100 nM.

For the molecule `C[C@@H](Cn1cnnn1)Oc1cc(-c2ccc3ncn(-c4ccn(C)n4)c3n2)ccc1F` [compound 122], the IC50 is less than 10 nM. For the molecule `C[C@@H](Cn1cnnn1)Oc1cc(-c2ccn3ncc(-c4ccccc4C=O)c3n2)ccc1F` [compound 123], the IC50 is less than 10 nM. The figure for `C[C@@H](Cn1cnnn1)Oc1cc(-c2ccc3ncc(-c4cn(CC(=O)OCc5ccccc5)nc4C#N)n3n2)ccc1F` [compound 124] is 10 to 100 nM. On to `C[C@@H](Cn1cnnn1)Oc1cc(-c2ccc3ncc(-c4cn(CC(=O)O)nc4C#N)n3n2)ccc1F` [compound 125], for which the IC50 lay within 10 to 100 nM. Take `COCCCNC(=O)Cn1cc(-c2cnc3ccc(-c4ccc(F)c(O[C@@H](C)Cn5cnnn5)c4)nn23)c(C#N)n1` [compound 126]: the IC50 was greater than 100 nM.

For the molecule `C[C@@H](Cn1cnnn1)Oc1cc(-c2ccc3ncc(-c4cn(CC(=O)NCCN5CCOCC5)nc4C#N)n3n2)ccc1F` [compound 127], the IC50 was greater than 100 nM.

On to `COC(=O)c1cccc(-c2cnn3ccc(-c4ccc(F)c(O[C@@H](C)Cn5cnnn5)c4)nc23)c1Cl` [compound 128], for which the IC50 was 10 to 100 nM. Turning to `C[C@@H](Cn1cnnn1)Oc1cc(-c2ccn3ncc(-c4ccccc4C(F)(F)F)c3n2)ccc1F` [compound 129], the IC50 was greater than 100 nM. For `C[C@@H](Cn1cnnn1)Oc1cc(-c2ccn3ncc(-c4cccc(C(F)(F)F)c4)c3n2)ccc1F` [compound 130], the IC50 was 10 to 100 nM. Consider `C[C@@H](Cn1cnnn1)Oc1cc(-c2ccn3ncc(-c4cccc(C(F)F)c4)c3n2)ccc1F` [compound 131], for which the IC50 is less than 10 nM. On to `C[C@@H](Cn1cnnn1)Oc1cc(-c2ccn3ncc(-c4ccc(C(F)F)cc4)c3n2)ccc1F` [compound 132], for which the IC50 lay within 10 to 100 nM. The figure for `C[C@@H](Cn1cnnn1)Oc1cc(-c2ccn3ncc(-c4ccccc4Cl)c3n2)ccc1F` [compound 133] is 10 to 100 nM; for `C[C@@H](Cn1cnnn1)Oc1cc(-c2ccn3ncc(-c4cccc(Cl)c4)c3n2)ccc1F` [compound 134] it is less than 10 nM. Take `C[C@@H](Cn1cnnn1)Oc1cc(-c2ccn3ncc(-c4ccc(Cl)cc4)c3n2)ccc1F` [compound 135]: the IC50 was in the range of 10 to 100 nM.

Take `C[C@@H](Cn1cnnn1)Oc1cc(-c2ccn3ncc(-c4ccc(C#N)cc4)c3n2)ccc1F` [compound 136]: the IC50 is 10 to 100 nM.

`C[C@@H](Cn1cnnn1)Oc1cc(-c2ccn3ncc(-c4cccnc4C#N)c3n2)ccc1F` [compound 137]: the IC50 was less than 10 nM.

`C[C@@H](Cn1cnnn1)Oc1cc(-c2ccn3ncc(-c4cnccc4C#N)c3n2)ccc1F` [compound 138]: the IC50 is less than 10 nM. The figure for `C[C@@H](Cn1cnnn1)Oc1cc(-c2ccn3ncc(-c4ccc(C#N)s4)c3n2)ccc1F` [compound 139] is less than 10 nM.

Take `COc1ccnc(-c2cnn3ccc(-c4ccc(F)c(O[C@@H](C)Cn5cnnn5)c4)nc23)c1` [compound 140]: the IC50 was 10 to 100 nM. In the case of `Cc1ncc(-c2cnn3ccc(-c4ccc(F)c(O[C@@H](C)Cn5cnnn5)c4)nc23)s1` [compound 141], the IC50 is less than 10 nM. The value for `Cc1nn(C)cc1-c1cnn2ccc(-c3ccc(F)c(O[C@@H](C)Cn4cnnn4)c3)nc12` [compound 142] was 10 to 100 nM. Turning to `Cc1c(-c2cnn3ccc(-c4ccc(F)c(O[C@@H](C)Cn5cnnn5)c4)nc23)cnn1C` [compound 143], the IC50 was less than 10 nM.

In the case of `C[C@@H](Cn1cnnn1)Oc1cc(-c2ccn3ncc(-c4cnn(C(F)F)c4)c3n2)ccc1F` [compound 144], the IC50 was less than 10 nM. With `C[C@@H](Cn1cnnn1)Oc1cc(-c2ccn3ncc(-c4cnn(CCN5CCOCC5)c4)c3n2)ccc1F` [compound 145], the IC50 lay in the range of 10 to 100 nM. For `CCOC(=O)c1ccc(C#N)c(-c2cnc3ccc(-c4ccc(F)c(O[C@@H](C)Cn5cnnn5)c4)nn23)c1` [compound 146], the IC50 is less than 10 nM. Regarding `C[C@@H](Cn1cnnn1)Oc1cc(-c2ccc3ncc(-c4cc(C(=O)O)ccc4C#N)n3n2)ccc1F` [compound 147], the IC50 was 10 to 100 nM.

For `C[C@@H](Cn1cnnn1)Oc1cc(-c2ccc3ncc(-c4cc(C(=O)NCCN5CCOCC5)ccc4C#N)n3n2)ccc1F` [compound 148], the IC50 is 10 to 100 nM.

Regarding `C[C@@H](Cn1cnnn1)Oc1cc(-c2ccn3ncc(-c4ccccc4C(F)F)c3n2)ccc1F` [compound 149], the IC50 was 10 to 100 nM. The figure for `C[C@@H](Cn1cnnn1)Oc1cc(-c2ccc3ncn(-c4ccccc4C#N)c3n2)ccc1F` [compound 151] is less than 10 nM; for `COc1c(C(=O)NCCN2CCOCC2)cccc1-c1cnn2ccc(-c3ccc(F)c(O[C@@H](C)Cn4cnnn4)c3)nc12` [compound 152] it is less than 10 nM; for `C[C@@H](Cn1cnnn1)Oc1cc(-c2ccc3ncn(-c4ccccn4)c3n2)ccc1F` [compound 153, 2-[5-(4-fluoro-3-{[(2S)-1-(1H-tetrazol-1-yl)propan-2-yl]oxy}phenyl)-3H-imidazo[4,5-b]pyridin-3-yl]pyridine] it is less than 10 nM. The figure for `C[C@@H](Cn1cnnn1)Oc1cc(-c2ccn3ncc(-c4cccc(F)c4C#N)c3n2)ccc1F` [compound 154] is less than 10 nM. Take `C[C@@H](Cn1cnnn1)Oc1cc(-c2ccn3ncc(-c4cccc(F)c4C(N)=O)c3n2)ccc1F` [compound 155]: the IC50 fell in the range of 10 to 100 nM. On to `C[C@@H](Cn1cnnn1)Oc1cc(-c2ccn3ncc(-c4cncc(C#N)c4)c3n2)ccc1F` [compound 156], for which the IC50 is less than 10 nM.

On to `C[C@@H](Cn1cnnn1)Oc1cc(-c2ccn3ncc(-c4cc(F)ccc4C#N)c3n2)ccc1F` [compound 157], for which the IC50 is less than 10 nM.

Consider `C[C@@H](Cn1cnnn1)Oc1cc(-c2ccn3ncc(-c4cc[nH]n4)c3n2)ccc1F` [compound 158], for which the IC50 was less than 10 nM. For `C[C@@H](Cn1cnnn1)Oc1cc(-c2ccc3ncn(-c4cccc(C#N)n4)c3n2)ccc1F` [compound 159], the IC50 was less than 10 nM. Consider `C[C@@H](Cn1cnnn1)Oc1cc(-c2ccn3ncc(-c4ccn(CCN5CCOCC5)n4)c3n2)ccc1F` [compound 160], for which the IC50 is less than 10 nM.

Take `C[C@@H](Cn1cnnn1)Oc1cc(-c2ccn3ncc(-c4ccn(CC#N)n4)c3n2)ccc1F` [compound 161]: the IC50 is less than 10 nM. Regarding `C[C@@H](Cn1cnnn1)Oc1cc(-c2ccn3ncc(-c4ccsc4C#N)c3n2)ccc1F` [compound 162], the IC50 is less than 10 nM.

With `C[C@@H](Cn1cnnn1)Oc1cc(-c2ccn3ncc(-c4cnn(C)c4C#N)c3n2)ccc1F` [compound 163], the IC50 was less than 10 nM. On to `C[C@@H](Cn1cnnn1)Oc1cc(-c2ccn3ncc(-c4cn(C)nc4C#N)c3n2)ccc1F` [compound 164], for which the IC50 is less than 10 nM. With `C[C@@H](Cn1cnnn1)Oc1cccc(-c2ccn3ncc(-c4cccc(C(=O)NS(=O)(=O)C5CC5)c4)c3n2)c1` [compound 165], the IC50 is less than 10 nM. As for `COc1ncccc1-c1cnn2ccc(-c3ccc(F)c(O[C@@H](C)Cn4cnnn4)c3)nc12` [compound 166], the IC50 is less than 10 nM. On to `C[C@@H](Cn1cnnn1)Oc1cc(-c2ccn3ncc(-c4ccc[nH]c4=O)c3n2)ccc1F` [compound 167], for which the IC50 is less than 10 nM.

As for `CNC(=O)c1ccc(C#N)c(-c2cnc3ccc(-c4ccc(F)c(O[C@@H](C)Cn5cnnn5)c4)nn23)c1` [compound 168], the IC50 is less than 10 nM.

In the case of `COCOc1cccc(-c2cnc3ccc(-c4ccc(F)c(O[C@@H](C)Cn5cnnn5)c4)nn23)c1C#N` [compound 169], the IC50 was less than 10 nM. The value for `C[C@@H](Cn1cnnn1)Oc1cc(-c2ccc3ncc(-c4cccc(O)c4C#N)n3n2)ccc1F` [compound 170] was less than 10 nM; that for `C[C@@H](Cn1cnnn1)Oc1cc(-c2ccc3ncc(-c4cccc(OCCCN5CCOCC5)c4C#N)n3n2)ccc1F` [compound 171] was less than 10 nM.

Turning to `COCCCOc1cccc(-c2cnc3ccc(-c4ccc(F)c(O[C@@H](C)Cn5cnnn5)c4)nn23)c1C#N` [compound 172], the IC50 was less than 10 nM. As for `COc1ncccc1-n1cnc2ccc(-c3ccc(F)c(O[C@@H](C)Cn4cnnn4)c3)nc21` [compound 174], the IC50 lay within 10 to 100 nM. The value for `C[C@@H](Cn1cnnn1)Oc1cc(-c2ccc3ncn(-c4ccc[nH]c4=O)c3n2)ccc1F` [compound 175] was 10 to 100 nM; that for `C[C@@H](Cn1cnnn1)Oc1cc(-c2ccc3ncn(-c4cccn(C)c4=O)c3n2)ccc1F` [compound 176] was 10 to 100 nM; that for `C[C@@H](Cn1cnnn1)Oc1cc(-c2ccc3ncc(-c4cccc(OCC#N)c4C#N)n3n2)ccc1F` [compound 177] was less than 10 nM.

As to `C[C@@H](Cn1cnnn1)Oc1cc(-c2ccc3ncc(-c4cccc(OC5CCNC5=O)c4C#N)n3n2)ccc1F` (stereo partly drawn) [compound 178], the IC50 was less than 10 nM.
